The NIST ThermoML archive (doi:10.1021/je700055p)
± gives the expanded uncertainty stated by the source.

Assay: relative permittivity at various frequencies (dimensionless)
Conditions: 101.3 kPa, Liquid, Frequency=1 MHz, Coaxial cylinder capacitor

In the case of `CC#N` [acetonitrile], the relative permittivity (288.15 K) is reported as 37.52 ± 0.17, the relative permittivity (293.15 K) is reported as 36.62 ± 0.16 and the relative permittivity (298.15 K) is reported as 35.88 ± 0.16. For the same compound, the relative permittivity (303.15 K) was 35.15 ± 0.15, the relative permittivity (308.15 K) was 34.45 ± 0.15 and the relative permittivity (313.15 K) was 33.75 ± 0.15. The relative permittivity (318.15 K) was 33.01 ± 0.14, the relative permittivity (323.15 K) was 32.36 ± 0.14 and the relative permittivity (328.15 K) was 31.62 ± 0.14. The relative permittivity (333.15 K) was 31.05 ± 0.13.
